Results: publication PMC10229078, “In vitro effects of lapachol and β-lapachone against Leishmania amazonensis” (Brazilian Journal of Medical and Biological Research, 2023)
Values joined by “and” are separate entries in the source; they are usually repeats but may differ in a detail not shown here. Equal values may be shown once.

Columns and labels:
[1] = test system: Leishmania amazonensis promastigotes; experiment: Viability assay of promastigotes, XTT colorimetric method (LD50); format: cell-based, Leishmania amazonensis (MHOM/BR/1977/LTB0016); settings: 25°C
Method: The viability of L. amazonensis (MHOM/BR/1977/LTB0016) promastigotes was evaluated using the XTT colorimetric method, which consists in the XTT salt degradation by the mitochondria forming formazan crystals. Promastigote forms (2×10^7 parasites/mL) from a culture in logarithmic growth phase were incubated with lapachol and β-lapachone diluted in 199 culture medium. The drugs were diluted in series, in a ratio of two, starting from 1/2, on a 96-well cell culture plate (TPP™ test plate, Switzerland). The compounds were tested at concentrations from 204.4 to 0.40 µg/mL (lapachol) and 157.5 to 0.31 µg/mL (β-lapachone). After 24, 48, and 72 h of incubation at 25°C, 100 μL of the XTT solution (500 μg/mL) activated with PMS (50 μg/mL) were added to each well and incubated for 4 h at 37°C. The result was measured by absorbance, determined by spectrophotometry (450/650 nm filter, VersaMax™ ELISA microplate reader, USA). The lethal dose (LD50) was defined as the concentrations of the compounds that reduced survival of L. amazonensis by 50% compared to untreated parasites in culture medium. AmB (1.96 to 0.25 µg/mL) was used as positive control of leishmanicidal activity. The therapeutic selectivity index (TSI CC50/LD50) was calculated by the ratio of toxicity to macrophage vs toxicity to parasites after 24 h incubation ([28]). All assays were performed in triplicate and repeated at least three times.

[2] = test system: J774A.1 macrophages; experiment: Macrophage cytotoxicity, XTT, J774A.1
[3] = test system: Leishmania amazonensis promastigotes; experiment: Mitochondria membrane potential (ΔΨm), Rh123 flow cytometry; format: cell-based; settings: for Reduction in ΔΨm: lapachol 76.62 µg/mL, β-lapachone 1.63 µg/mL, H2O2 2 mM; for Variation Index (VI) of Rh123 fluorescence, (MT−MC)/MC: lapachol 76.62 μg/mL, β-lapachone 1.63 μg/mL, PC 2 mM
Method: The ΔΨm was determined using on BD FacsCalibur™ flow cytometer and CellQuest Pro software, with a total of 10.000 events acquired, using a mitochondrial-specific green-fluorescent dye Rh123 ([31]). Briefly, L. amazonensis (2×10^7 parasites/mL) were incubated with lapachol (76.62 µg/mL) and β-lapachone (1.63 µg/mL) for 1, 4, and 24 h at 25°C. After washed with PBS, the parasites were incubated with 5 μg/mL Rh123 for 15 min. After the incubation time, the cells were washed and suspended in PBS for additional incubation of 30 min for analysis. The percentage of fluorescence of Rh123, was determined by the (MT/MC)*100 equation, with MT representing the median fluorescence of the treated parasites and the MC the median fluorescence of negative controls. Alteration in ΔΨm was quantified using an index of variation (IV) obtained by the equation IV = (MT - MC)/MC, where negative IV values correspond to depolarization of the mitochondrial membrane. H2O2 (2 mM) was used as a positive control ([32]).

[4] = test system: Leishmania amazonensis promastigotes; experiment: Change in cell volume and morphology of the parasites (flow cytometry FSC-H/SSC-H, SEM); format: cell-based; settings: 24 h, lapachol 76.62 µg/mL, β-lapachone 1.63 µg/mL; for Percentage population of the lower left quadrant gate (FSC-H/SSC-H, cell volume): H2O2 2 mM, untreated 93.14%
Method: Promastigote forms (2×10^7 cells) of L. amazonensis untreated (negative control) or treated with 76.62 µg/mL of lapachol and 1.63 µg/mL of β-lapachone were analyzed to observe changes in cell morphology of the parasites induced by the treatment after 24 h of incubation. […] Subsequently, the parasites were analyzed using a BD FacsCalibur flow cytometer (Becton Dickinson, USA) and CellQuest Pro software (Joseph Trotter, Scripps Research Institute, USA), and 10,000 events were acquired. Dot plots were generated, the forward scatter (FSC-H) parameter was analyzed as presenting a correlation with the cell volume.
Scanning electron microscopy (SEM) also was performed to analyze morphological changes in cell surface topography. After 24 h of treatment, the parasites were centrifuged at 576 g for 10 min, and the samples were fixed in 2.5% glutaraldehyde and 0.1 M sodium cacodylate buffer. Poly-L-lysine was used to promote the adhesion of fixed parasites on coverslips. Promastigotes were dehydrated with increasing ethanol concentrations (30-100%), submitted to critical point drying, and metalized with gold for visualization on a Shimadzu 55-550 (Japan) microscope.

[5] = test system: Peritoneal macrophages from BALB/c mice; experiment: Macrophage cytotoxicity, XTT, peritoneal macrophages
Method: Peritoneal macrophages from BALB/c mice were obtained as described before and adjusted to 1×10^6 macrophages/mL and plated in 96-well culture plates (TPP™ test plate, Switzerland), followed by 2 h of incubation (5% CO2 at 37°C). […] Cultures were incubated for 24 h at 37°C in 5% CO2, and non-treated cultures were used as viability control. […] After 4 h of incubation in 5% CO2 at 37°C protected from light, the results were measured as absorbance, determined by spectrophotometry (450/620 nm filter, VersaMax™ ELISA microplate reader) ([28]). […] At least three experiments were performed in quadruplicate.

[6] = test system: IL-2, IL-4, IL-6, IFN-γ, TNF-α, IL-17A, IL-10 production in murine macrophages; experiment: Cytokine production in supernatant of amastigote assays (CBA Mouse Th1/Th2/Th17 kit); format: cell-based, BALB/c mice; settings: 24 h; for IL-2, IL-4, IFN-γ, IL-17A, and IL-10 production: macrophages infected with L. amazonensis and treated; for IL-6 levels / TNF-α levels: uninfected and infected treated macrophages, all concentrations tested
Method: For the determination of cytokines, the supernatant of the amastigote assays stored at −80°C was used (MO, macrophages (negative control); MO + L. amazonensis (6 parasites/macrophage); samples treated with lapachol at IC50/2, IC50, and 2× IC50 with L. amazonensis (+) or without (-); the same was repeated for β-lapachone). The supernatant was centrifuged, and a 50 μL aliquot was used to determine cytokine levels (in pg/mL) using the BD Cytometric Bead Array (CBA) Mouse Th1/Th2/Th17 Cytokine kit (BD Life Sciences - Biosciences, USA). The dosage was performed in triplicate and according to the manufacturer's standards. This method is based on a suspension that contains beads, in which encoded fluorescent beads have cytokines that capture antibodies to bind the proteins. The final analysis was performed by flow cytometry using the BD FacsCalibur™ flow cytometer and CellQuest Pro software. The kit allows the measurement of seven distinct populations of Th1, Th2, and Th17 cytokines (IL-2, IL-4, IL-6, IFN-γ, TNF-α, IL-17A, and IL-10) in a single sample.

[7] = test system: Leishmania amazonensis promastigotes; experiment: Promastigote growth inhibition, counting in Neubauer chamber (IC50); format: cell-based, Leishmania amazonensis (MHOM/BR/1977/LTB0016)
Method: Leishmania growth was evaluated after 24 h of incubation at 25°C with the compounds under the same conditions as previously mentioned. Then, 10 µL of the content of each well was added to a 990 µL (1/100) of formalin solution (2%), and the parasites were counted in a Neubauer chamber. The inhibitory concentration (IC50) of promastigotes was calculated by comparing with untreated promastigotes in culture medium. The results were evaluated by linear regression of the inhibition percentage. The selectivity index (SI CC50/IC50) was calculated by the ratio of toxicity concentration to macrophage vs inhibitory concentration to the parasite growth after 24 h incubation ([27]). All assays were performed in triplicate and repeated at least three times.

4-hydroxy-3-(3-methylbut-2-enyl)naphthalene-1,2-dione [lapachol]
Promastigotes LD50 ([1]; 24 h incubation): 75.60 µg/mL | Promastigotes LD50 ([1]; 24 h incubation, listed as Lapachol (1)): 75.60 ± 6.12 µg/mL | Promastigotes LD50 ([1]; 48 h incubation): 72.82 µg/mL and 72.82 ± 12.99 µg/mL | Promastigotes LD50 ([1]; 72 h incubation): 58.85 µg/mL and 58.85 ± 6.43 µg/mL | J774A.1 macrophage cytotoxicity CC50 ([2]; J774A.1, 24 h): 26.66 ± 8.69 µg/mL | Reduction in ΔΨm ([3]; 1 h): 44% | Variation Index (VI) of Rh123 fluorescence, (MT−MC)/MC ([3]; 1 h): -0.44 | Reduction in ΔΨm ([3]; 4 h): 69% | Variation Index (VI) of Rh123 fluorescence, (MT−MC)/MC ([3]; 4 h): -0.69 | Reduction in ΔΨm ([3]; 24 h): 30% | Variation Index (VI) of Rh123 fluorescence, (MT−MC)/MC ([3]; 24 h): -0.30 | Morphological changes of promastigotes (SEM, microscopy) [4]: loss of cell volume, rounder shape, flagellar alterations, and cellular shrinkage | Percentage population of the lower left quadrant gate (FSC-H/SSC-H, cell volume) [4]: 82.82% | Murine macrophage cytotoxicity CC50 ([5]; peritoneal macrophages, 24 h): 41.14 ± 2.17 µg/mL | IL-2, IL-4, IFN-γ, IL-17A, and IL-10 production [6]: did not present significant changes | IL-6 levels [6]: decrease | TNF-α levels [6]: decrease | IC50 ([7]; 24 h, value in µM): 316 µM | Promastigotes IC50 ([7]; 24 h incubation, growth inhibition by counting): 76.62 ± 1.21 µg/mL

CC1(C)CCC2=C(O1)c1ccccc1C(=O)C2=O [β-lapachone, 2,2-dimethyl-3,4-dihydrobenzo[h]chromene-5,6-dione]
Promastigotes LD50 ([1]; 24 h incubation): 0.65 µg/mL and 0.65 ± 0.18 µg/mL | Promastigotes LD50 ([1]; 24 h incubation, listed as β-lapachone (2)): 0.65 ± 0.18 µg/mL | Promastigotes LD50 ([1]; 48 h incubation): 1.24 µg/mL and 1.24 ± 0.19 µg/mL | Promastigotes LD50 ([1]; 72 h incubation): 0.71 µg/mL and 0.71 ± 0.03 µg/mL | Selectivity index (SI CC50/IC50) ([2]; J774A.1 macrophage CC50 / promastigote IC50, 24 h): 1.95 | Therapeutic selectivity index (TSI CC50/LD50) ([2]; J774A.1 macrophage CC50 / promastigote LD50, 24 h): 4.89 | times more selective than lapachol for Leishmania death (TSI) ([2]; J774A.1 macrophages): 14 times | times more selective than lapachol for inhibiting the growth of Leishmania culture (SI) ([2]; J774A.1 macrophages): 5.6 times | Reduction in ΔΨm ([3]; 1 h): 15% | Variation Index (VI) of Rh123 fluorescence, (MT−MC)/MC ([3]; 1 h): -0.15 | Reduction in ΔΨm ([3]; 4 h): 54% | Variation Index (VI) of Rh123 fluorescence, (MT−MC)/MC ([3]; 4 h): -0.54 | Reduction in ΔΨm ([3]; 24 h): 98% | Variation Index (VI) of Rh123 fluorescence, (MT−MC)/MC ([3]; 24 h): -0.98 | Morphological changes of promastigotes (SEM, microscopy) [4]: loss of cell volume, rounder shape, flagellar alterations, and cellular shrinkage | Percentage population of the lower left quadrant gate (FSC-H/SSC-H, cell volume) [4]: 62.35% | Selectivity index (SI CC50/IC50) ([5]; murine macrophage CC50 / promastigote IC50, 24 h): 1.97 | Therapeutic selectivity index (TSI CC50/LD50) ([5]; murine macrophage CC50 / promastigote LD50, 24 h): 4.94 | times more selective than lapachol for Leishmania death (TSI) ([5]; murine macrophages): 9.15 times | times more selective than lapachol for inhibiting the growth of Leishmania culture (SI) ([5]; murine macrophages): 3.65 times | IL-2, IL-4, IFN-γ, IL-17A, and IL-10 production [6]: did not present significant changes | IL-6 levels [6]: decrease | TNF-α levels [6]: decrease | IC50 ([7]; Leishmania amazonensis, 24 h, value in µM): 6.73 µM | IC50 ([7]; Leishmania amazonensis, 24 h incubation, growth inhibition by counting): 1.63 ± 0.09 µg/mL
